Earlier results, collected in US20090156670A1 (VENUS REMEDIES LIMITED, priority 2004, published 2009).

Assays:
[1] = rheumatoid arthritis patients, long-term (6 months) study
CD43 = conditions: human neutrophils
[2] = pain elicited by chemical and mechanical stimuli
CD44 = conditions: human neutrophils
COX-I = COX-I (Homo sapiens, UniProt P23219); conditions: oral form
[3] = tested on: sodium urate-induced synovitis; conditions: dogs; prophylactically and therapeutically
[4] = tested on: adjuvant-induced polyarthritis; conditions: rats; prophylactically and therapeutically
[5] = rats
CD11b = conditions: human neutrophils
CD31 = conditions: human neutrophils
CD11a = conditions: human neutrophils
[6] = tested on: interleukin1β-induced prostaglandin E2 production
ICAM-3 = conditions: human neutrophils

Chain of COX-I (P23219 24-599): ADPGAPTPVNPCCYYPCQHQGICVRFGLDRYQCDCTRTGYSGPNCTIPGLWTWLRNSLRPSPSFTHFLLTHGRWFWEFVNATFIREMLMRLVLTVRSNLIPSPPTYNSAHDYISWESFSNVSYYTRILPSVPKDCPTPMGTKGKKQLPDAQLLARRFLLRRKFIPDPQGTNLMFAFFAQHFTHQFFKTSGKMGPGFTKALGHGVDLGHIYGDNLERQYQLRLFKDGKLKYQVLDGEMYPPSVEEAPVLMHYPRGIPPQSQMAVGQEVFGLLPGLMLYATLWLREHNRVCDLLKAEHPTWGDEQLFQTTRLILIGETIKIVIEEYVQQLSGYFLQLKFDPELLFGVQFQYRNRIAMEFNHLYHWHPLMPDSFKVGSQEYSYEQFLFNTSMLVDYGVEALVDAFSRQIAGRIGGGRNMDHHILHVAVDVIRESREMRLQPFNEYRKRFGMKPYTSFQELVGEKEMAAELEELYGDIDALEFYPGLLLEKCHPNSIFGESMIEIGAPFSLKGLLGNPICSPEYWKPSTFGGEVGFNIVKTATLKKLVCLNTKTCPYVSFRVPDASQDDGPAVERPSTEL

Structure (SMILES)	incidence of gastrointestinal intolerance [1] [%]	decrement of CD43 expression (CD43)	neutrophil aggregation induced with anti-CD43 Mab (neutrophil aggregation)	analgesic effect compared with indometacin and diclofenac [2]	CD44 expression (CD44)	COX-I inhibitor effect (COX-I)	activity against sodium urate-induced synovitis [3]	activity against adjuvant-induced polyarthritis [4]	fever induced by brewer's yeast injection [5]	CD11b expression (CD11b)	CD31 expression (CD31)	CD11a expression (CD11a)	interleukin1β-induced prostaglandin E2 production [6]	decrement of ICAM-3 expression (ICAM-3)
O=C(O)COC(=O)Cc1ccccc1Nc1c(Cl)cccc1Cl [aceclofenac, 2-[(2,6-dichlorophenyl)amino]phenylacetoxyacetic acid]	13	moderate	significantly inhibited	nearly equal to or slightly better	unaffected	poor	highly active	highly active	markedly suppressed	slightly increased	unaffected	unaffected	inhibits	slight
O=C(O)Cc1ccccc1Nc1c(Cl)cccc1Cl [diclofenac]	17	–	–	–	–	–	–	–	–	–	–	–	–	–
